The values below come from patent US20240287080A1 (IDEAYA Biosciences Inc., priority 2021, published 2024).

Some results are limits rather than exact numbers.

T1 sequence (O75417 1-899): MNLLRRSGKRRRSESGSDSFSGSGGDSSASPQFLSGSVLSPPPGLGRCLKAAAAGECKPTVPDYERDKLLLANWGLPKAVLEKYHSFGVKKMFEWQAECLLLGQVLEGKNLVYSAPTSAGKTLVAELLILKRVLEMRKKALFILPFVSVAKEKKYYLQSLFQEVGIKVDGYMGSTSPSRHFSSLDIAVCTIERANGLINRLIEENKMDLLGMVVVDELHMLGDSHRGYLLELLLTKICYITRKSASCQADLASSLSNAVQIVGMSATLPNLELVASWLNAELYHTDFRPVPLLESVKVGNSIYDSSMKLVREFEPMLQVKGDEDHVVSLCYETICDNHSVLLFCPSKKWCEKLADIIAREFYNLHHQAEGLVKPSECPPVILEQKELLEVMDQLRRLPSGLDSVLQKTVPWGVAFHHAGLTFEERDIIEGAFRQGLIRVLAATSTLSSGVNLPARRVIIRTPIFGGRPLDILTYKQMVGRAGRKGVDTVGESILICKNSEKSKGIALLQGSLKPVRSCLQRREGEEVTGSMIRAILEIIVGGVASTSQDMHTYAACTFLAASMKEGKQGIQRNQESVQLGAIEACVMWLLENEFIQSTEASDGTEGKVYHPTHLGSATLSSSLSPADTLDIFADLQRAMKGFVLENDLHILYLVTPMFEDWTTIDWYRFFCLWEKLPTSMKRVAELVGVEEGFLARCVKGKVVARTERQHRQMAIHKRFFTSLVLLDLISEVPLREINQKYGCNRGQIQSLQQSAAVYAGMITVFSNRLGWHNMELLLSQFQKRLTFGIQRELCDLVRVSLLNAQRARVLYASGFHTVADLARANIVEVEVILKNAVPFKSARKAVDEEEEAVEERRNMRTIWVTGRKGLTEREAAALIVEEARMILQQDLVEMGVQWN

The first assay concerns the target T1, Pol theta (1-899) (Homo sapiens, UniProt O75417).
T1 construct: Pol theta (1-899) (5 nM) in assay buffer
As to the kind of experiment: Pol theta ATPase activity, NADH oxidation-coupled enzymatic assay (ATPase NADH coupling: Standard Screening: hPolQ). Type of assay: biochemical. Conditions: Pol theta (1-899) 5 nM, NADH oxidation-coupled ATPase assay; compounds of Table 3. A digest of the protocol: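 Rates of ATP hydrolysis taken from 60-min A340 traces of NADH oxidation via PK/LDH coupling, then fit four-parameter for IC50, Hill slope and max inhibition. Enzyme (5 nM, 1-899) and compounds preincubated 15 min before ATP 100 μM and 50-thymine ssDNA 300 nM (stock, equal volume added).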
With `COc1nnc(NC(=O)c2cnc(C)cc2-c2ccccc2C#N)s1` [Example 454, 4-(2-cyanophenyl)-N-(5-methoxy-1,3,4-thiadiazol-2-yl)-6-methylpyridine-3-carboxamide], the concentration for half-maximal inhibition (IC50) (usually the concentration that inhibits the measured activity by half) was 1000 to 10000 nM. The same measure, in the same setting: the figure for `COc1cnc(C)c(F)c1-c1cc(C)ncc1C(=O)Nc1nnc(O[C@@H]2CCC[C@@H](O)C2)s1` (single isomer, unassigned) [Example 274] is ≤ 200 nM. Still for that read-out and setting: the figure for `COc1nnc(NC(=O)c2cnc(C)cc2-c2cnn3c2CCCC3)s1` [Example 395, N-(5-methoxy-1,3,4-thiadiazol-2-yl)-6-methyl-4-{4H,5H,6H,7H-pyrazolo[1,5-a]pyridin-3-yl}pyridine-3-carboxamide] is 1000 to 10000 nM. Turning to `COc1nnc(NC(=O)c2cnc(C)cc2-c2cnc3ccccc3c2)s1` [Example 394, N-(5-methoxy-1,3,4-thiadiazol-2-yl)-6-methyl-4-(quinolin-3-yl)pyridine-3-carboxamide], the concentration for half-maximal inhibition (IC50) was 1000 to 10000 nM. On the same count and under the same terms, as for `COc1nnc(NC(=O)c2cnc(C)cc2-c2csc3cnccc23)s1` [Example 425, N-(5-methoxy-1,3,4-thiadiazol-2-yl)-6-methyl-4-{thieno[2,3-c]pyridin-3-yl}pyridine-3-carboxamide], the figure is 500 to 1000 nM. Compound `COc1nnc(NC(=O)c2cnc(C)cc2-c2ccco2)s1` [Example 391, 4-(furan-2-yl)-N-(5-methoxy-1,3,4-thiadiazol-2-yl)-6-methylpyridine-3-carboxamide] had an IC50 of 1000 to 10000 nM. Take `COc1cnc(C)cc1-c1cc(C)ncc1C(=O)Nc1nnc(OC2CC=CC2)s1` [Example 240, N-(5-(cyclopent-3-en-1-yloxy)-1,3,4-thiadiazol-2-yl)-5′-methoxy-2′,6-dimethyl-[4,4′-bipyridine]-3-carboxamide]: the half-maximal inhibitory concentration (IC50) was ≤ 200 nM.

As for `Cc1cc(-c2cc(Cl)ncc2OC(F)F)c(C(=O)Nc2nnc(O[C@H]3CCC[C@@H](O)C3)s2)cn1` (single isomer, unassigned) [Example 253], the half-inhibitory concentration (IC50) was ≤ 200 nM. `COc1nnc(NC(=O)c2cnc(C)cc2-c2cc(C(F)(F)F)cc(C(F)(F)F)c2)s1` [Example 333, 4-[3,5-bis(trifluoromethyl)phenyl]-N-(5-methoxy-1,3,4-thiadiazol-2-yl)-6-methylpyridine-3-carboxamide] showed an IC50 of 1000 to 10000 nM. With `COc1nnc(NC(=O)c2cnc(C)cc2-c2cc(C)c([S@@+](C)[O-])cc2OC)s1` (single isomer, unassigned) [Example 308], the half-maximal inhibitory concentration (IC50) fell in the range of 1000 to 10000 nM. In turn, `COc1nnc(NC(=O)c2cnc(C)cc2-c2cn(C)c3ccccc23)s1` [Example 464, N-(5-methoxy-1,3,4-thiadiazol-2-yl)-6-methyl-4-(1-methyl-1H-indol-3-yl)pyridine-3-carboxamide] showed a half-maximal inhibitory concentration (IC50) of 1000 to 10000 nM.

`COc1nnc(NC(=O)c2cnc(C)cc2-c2cnc(C(F)(F)F)c(F)c2)s1` [Example 342, 5-fluoro-N-(5-methoxy-1,3,4-thiadiazol-2-yl)-6′-methyl-6-(trifluoromethyl)-[3,4′-bipyridine]-3′-carboxamide]: the half-inhibitory concentration (IC50) is 1000 to 10000 nM. `CC[S@@+]([O-])c1cc(OC)c(-c2cc(C)ncc2C(=O)Nc2nnc(OC)s2)cc1Cl` (single isomer, unassigned) [Example 313]: the half-inhibitory concentration (IC50) was ≤ 200 nM. For the compound `COc1nnc(NC(=O)c2cnc(C)cc2-c2cccc3ccoc23)s1` [Example 367, 4-(1-benzofuran-7-yl)-N-(5-methoxy-1,3,4-thiadiazol-2-yl)-6-methylpyridine-3-carboxamide], the 50% inhibitory concentration (IC50) was in the range of 200 to 500 nM. On the same count and under the same terms, as for `COc1cnc(Cl)cc1-c1cc(C)ncc1C(=O)Nc1nnc(O[C@@H]2C[C@H](F)CN(C3COC3)C2)s1` (single isomer, unassigned) [Example 260], the figure is ≤ 200 nM; as for `COc1nnc(NC(=O)c2cc(OC(F)F)ncc2-c2cc(Cl)ncc2OC)s1` [Example 265, 2′-chloro-6-(difluoromethoxy)-5′-methoxy-N-(5-methoxy-1,3,4-thiadiazol-2-yl)-[3,4′-bipyridine]-4-carboxamide], ≤ 200 nM. With `COc1nnc(NC(=O)c2ccc(C#N)cc2-c2cc(Cl)ncc2OC)s1` [Example 248, 2-(2-chloro-5-methoxypyridin-4-yl)-4-cyano-N-(5-methoxy-1,3,4-thiadiazol-2-yl)benzamide], the IC50 is ≤ 200 nM.

For `COc1nnc(NC(=O)c2cnc(C)cc2-c2ccc(F)c(F)c2C)s1` [Example 475, 4-(3,4-difluoro-2-methylphenyl)-N-(5-methoxy-1,3,4-thiadiazol-2-yl)-6-methylpyridine-3-carboxamide], the 50% inhibitory concentration (IC50) lay in the range of 500 to 1000 nM.

Staying with this assay, now noted: Table 4; Pol theta (1-899) 5 nM, ATP, dT50 ssDNA.
Consider `COc1nnc(NC(=O)c2cnc(C)cc2-c2cc(C)ncc2OC(F)F)s1` [Example 52, 5′-(difluoromethoxy)-N-(5-methoxy-1,3,4-thiadiazol-2-yl)-2′,6-dimethyl-(4,4′-bipyridine)-3-carboxamide], for which the half-inhibitory concentration (IC50) was ≤ 200 nM.

For `COc1nnc(NC(=O)c2cnc(C)cc2-c2cc(Cl)ccc2OC(F)F)s1` [Example 33, 4-(5-chloro-2-(difluoromethoxy)phenyl)-N-(5-methoxy-1,3,4-thiadiazol-2-yl)-6-methylnicotinamide], the IC50 is ≤ 200 nM. `COc1cccc(F)c1-c1cc(C)ncc1C(=O)Nc1nnc(OCC(C)(C)C(F)(F)F)s1` [Example 4, 4-(2-fluoro-6-methoxyphenyl)-6-methyl-N-(5-(3,3,3-trifluoro-2,2-dimethylpropoxy)-1,3,4-thiadiazol-2-yl)pyridine-3-carboxamide] had a half-maximal inhibitory concentration (IC50) of 200 to 500 nM. Take `CCCOc1nnc(NC(=O)c2cnc(C)cc2-c2cc(Cl)ncc2OC)s1` [Example 37, 2′-chloro-5′-methoxy-6-methyl-N-(5-propoxy-1,3,4-thiadiazol-2-yl)-(4,4′-bipyridine)-3-carboxamide]: the IC50 was ≤ 200 nM.

For `COc1nnc(NC(=O)c2cnc(C)cc2-c2cc(C)ccc2OC)s1` [Example 30, N-(5-methoxy-1,3,4-thiadiazol-2-yl)-4-(2-methoxy-5-methylphenyl)-6-methylnicotinamide], the half-inhibitory concentration (IC50) was ≤ 200 nM. Take `COc1cnc(Cl)cc1-c1cc(C)ncc1C(=O)Nc1nnc(OCC(C)(C)O)s1` [Example 14, 2′-chloro-N-(5-(2-hydroxy-2-methylpropoxy)-1,3,4-thiadiazol-2-yl)-5′-methoxy-6-methyl-(4,4′-bipyridine)-3-carboxamide]: the IC50 is ≤ 200 nM.

The same assay, now with this note: Table 5; Pol theta (1-899) 5 nM, ATP, dT50 ssDNA.
As for `COc1cnc(Cl)c(F)c1-c1cc(C)ncc1C(=O)Nc1nnc(O[C@@H]2CC[C@@H](O)C2)s1` (single isomer, unassigned) [Example 198], the half-inhibitory concentration (IC50) was ≤ 200 nM. As to `COc1cnc(C)c(F)c1-c1cc(C)ncc1C(=O)Nc1nnc(O[C@H]2COC3(CC3)C2)s1` (single isomer, unassigned) [Example 208], the IC50 is ≤ 200 nM.

As to `COc1cnc(Cl)c(F)c1-c1cc(C)ncc1C(=O)Nc1nnc(O[C@H]2CCO[C@H]2C)s1` (single isomer, unassigned) [Example 164], the IC50 was ≤ 200 nM. For the compound `COc1cnc(Cl)cc1-c1cc(C)ncc1C(=O)Nc1nnc(O[C@@H]2CCC[C@H](O)C2)s1` (single isomer, unassigned) [Example 160], the IC50 was ≤ 200 nM.

Regarding `COc1nnc(NC(=O)c2cnc(C)cc2-c2ccnc3nccn23)s1` [Example 88, 4-(imidazo(1,2-a)pyrimidin-5-yl)-N-(5-methoxy-1,3,4-thiadiazol-2-yl)-6-methylnicotinamide], the IC50 fell in the range of 1000 to 10000 nM.
